The AC50 is the midpoint of the concentration-response curve, whichever way the signal moves.

The values below come from ChEMBL document CHEMBL1201862, “PubChem BioAssay data set” (2004).

SMILES strings stand for the structures. Active and inactive are the calls of the source. Some results are limits rather than exact numbers.

Targets include Cytochrome P450 2C9 (Homo sapiens, UniProt P11712); Cytochrome P450 2D6 (Homo sapiens, UniProt P10635); Cytochrome P450 3A4 (Homo sapiens, UniProt P08684).
In data set [1] the target is T1, Polyadenylate-binding protein 1 (Homo sapiens, UniProt P11940). Kind of data set: PABP1 MLLE–PAM2 binding inhibitor potency, dose response, biochemical, fluorescence polarization, FITC-PAM2 peptide (AID 602259). It is filed as functional. The conditions noted are these: read-out: IC50_Mean. A general note: Fluorescence polarisation rises when a labelled molecule tumbles more slowly, as on binding a larger partner.

The target in data set [2] is T1, Polyadenylate-binding protein 1. Kind of data set: PABP1 MLLE–PAM2 interaction inhibitors, dose response, miRNA deadenylation inhibitor project, biochemical, fluorescence polarization, Cy5-PAM2 peptide, secondary (AID 602260). The conditions noted are these: read-out: IC50_Mean. It is filed as functional.
Data set [3] has as its target T2, Corticotropin-releasing factor receptor 2/Corticotropin-releasing factor-binding protein (Homo sapiens, UniProt P24387+Q13324).
T2 sequence (Q13324 whole entry): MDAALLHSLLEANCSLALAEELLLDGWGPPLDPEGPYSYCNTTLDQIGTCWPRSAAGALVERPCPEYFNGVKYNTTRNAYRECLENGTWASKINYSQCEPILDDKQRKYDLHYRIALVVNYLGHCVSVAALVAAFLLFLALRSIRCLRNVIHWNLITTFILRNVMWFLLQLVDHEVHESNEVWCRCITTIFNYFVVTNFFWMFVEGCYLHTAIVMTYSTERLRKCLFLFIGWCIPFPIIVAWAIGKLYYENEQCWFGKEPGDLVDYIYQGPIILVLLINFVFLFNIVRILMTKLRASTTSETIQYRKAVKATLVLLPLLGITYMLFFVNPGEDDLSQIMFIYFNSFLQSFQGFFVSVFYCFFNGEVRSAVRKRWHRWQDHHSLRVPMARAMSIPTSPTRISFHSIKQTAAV
T2 sequence (P24387 whole entry): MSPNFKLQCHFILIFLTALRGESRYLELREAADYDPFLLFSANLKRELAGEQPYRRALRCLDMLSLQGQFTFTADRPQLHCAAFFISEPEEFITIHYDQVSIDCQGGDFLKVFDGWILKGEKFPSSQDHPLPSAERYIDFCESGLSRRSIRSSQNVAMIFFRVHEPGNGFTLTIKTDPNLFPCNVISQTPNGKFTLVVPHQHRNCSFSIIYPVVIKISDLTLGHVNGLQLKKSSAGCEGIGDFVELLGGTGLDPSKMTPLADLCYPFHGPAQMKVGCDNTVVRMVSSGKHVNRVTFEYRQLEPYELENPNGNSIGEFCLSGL
Kind of data set: Dose Response confirmation of uHTS hits for small molecule antagonists of the CRF-binding protein and CRF-R2 receptor complex. The conditions noted are these: read-out: IC50_Mean. The data set is classed as functional.

For data set [4], the target named is T2, Corticotropin-releasing factor receptor 2/Corticotropin-releasing factor-binding protein. Kind of data set: activators of CRF receptor 2 with binding protein – uHTS hits, confirmation (AID 602473). The data set is classed as functional. The conditions noted are these: read-out: EC50_Mean.
In the next data set the target is T3, Cytochrome P450 1A2 (Homo sapiens, UniProt P05177).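 Also: PubChem cytochrome P450 panel assay, CYP1A2 panel member.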
T3 sequence (P05177 whole entry): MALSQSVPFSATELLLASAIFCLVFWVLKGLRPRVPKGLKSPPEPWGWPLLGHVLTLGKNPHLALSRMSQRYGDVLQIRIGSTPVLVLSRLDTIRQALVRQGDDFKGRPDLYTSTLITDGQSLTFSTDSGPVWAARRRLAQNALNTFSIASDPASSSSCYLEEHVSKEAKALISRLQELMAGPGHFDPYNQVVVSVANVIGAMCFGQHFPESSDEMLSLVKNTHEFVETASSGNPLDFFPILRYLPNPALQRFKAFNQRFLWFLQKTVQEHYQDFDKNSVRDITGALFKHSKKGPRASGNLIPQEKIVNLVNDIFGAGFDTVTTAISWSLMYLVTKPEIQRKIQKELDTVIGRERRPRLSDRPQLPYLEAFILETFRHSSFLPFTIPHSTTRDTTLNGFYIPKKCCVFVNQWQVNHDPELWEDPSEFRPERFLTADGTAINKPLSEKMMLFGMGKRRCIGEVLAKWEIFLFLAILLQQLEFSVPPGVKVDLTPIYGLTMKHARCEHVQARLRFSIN

A further data set has as its target Cytochrome P450 2C19 (Homo sapiens, UniProt P33261). In words: Cytochrome panel assay with activity outcomes. Panel member name: p450-cyp2c19 Compounds with AC50 equal or less than 10 uM are considered active. The data set is classed as functional.
A short description of data set [5]: C. albicans growth with fluconazole, confirmation, fluorescence, retest (AID 2467). The data set is classed as functional, cell-based.
Data set [6] is described as follows: NIH-3T3 fibroblast cytotoxicity, dose response, cytotoxicity control, cell-based, fluorescence, Alamar Blue, secondary assay (AID 2327).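 Also: NIH-3T3 mouse fibroblasts cultured with fluconazole at 8 µg/mL.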 The data set is classed as functional. For orientation: Resazurin is reduced to fluorescent resorufin, in cell work by metabolically active cells.

T1 sequence (P11940 whole entry): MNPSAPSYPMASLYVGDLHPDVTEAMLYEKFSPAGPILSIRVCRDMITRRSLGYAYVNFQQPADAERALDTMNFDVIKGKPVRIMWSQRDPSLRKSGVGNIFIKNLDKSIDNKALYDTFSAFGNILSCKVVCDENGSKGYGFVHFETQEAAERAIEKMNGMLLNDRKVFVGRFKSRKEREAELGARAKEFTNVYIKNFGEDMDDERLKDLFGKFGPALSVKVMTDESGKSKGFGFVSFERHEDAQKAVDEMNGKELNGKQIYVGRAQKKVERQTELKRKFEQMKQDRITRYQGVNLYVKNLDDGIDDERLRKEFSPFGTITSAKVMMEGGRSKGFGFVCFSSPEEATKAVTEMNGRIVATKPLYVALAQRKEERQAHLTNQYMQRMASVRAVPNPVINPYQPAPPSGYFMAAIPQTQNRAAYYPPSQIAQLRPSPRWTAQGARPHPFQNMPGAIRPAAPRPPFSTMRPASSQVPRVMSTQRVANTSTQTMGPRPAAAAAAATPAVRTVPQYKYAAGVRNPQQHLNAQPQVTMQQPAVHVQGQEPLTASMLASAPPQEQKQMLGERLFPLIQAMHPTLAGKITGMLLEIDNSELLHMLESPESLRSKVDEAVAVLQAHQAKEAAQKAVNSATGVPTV
Sequence of Cytochrome P450 3A4 (P08684 whole entry): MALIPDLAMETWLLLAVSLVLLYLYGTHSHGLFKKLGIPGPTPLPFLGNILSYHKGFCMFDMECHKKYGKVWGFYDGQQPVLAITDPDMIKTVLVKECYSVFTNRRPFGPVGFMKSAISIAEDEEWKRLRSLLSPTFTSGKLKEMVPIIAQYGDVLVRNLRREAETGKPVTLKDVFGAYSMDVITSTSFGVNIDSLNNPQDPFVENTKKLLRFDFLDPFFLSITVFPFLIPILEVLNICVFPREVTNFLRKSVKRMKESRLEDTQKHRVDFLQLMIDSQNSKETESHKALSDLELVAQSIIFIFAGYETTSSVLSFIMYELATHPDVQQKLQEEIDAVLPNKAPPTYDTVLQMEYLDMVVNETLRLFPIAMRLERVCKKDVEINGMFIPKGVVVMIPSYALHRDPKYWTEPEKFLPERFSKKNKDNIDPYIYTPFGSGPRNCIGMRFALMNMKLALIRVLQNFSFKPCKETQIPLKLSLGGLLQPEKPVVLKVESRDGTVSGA
Sequence of Cytochrome P450 2C19 (P33261 whole entry): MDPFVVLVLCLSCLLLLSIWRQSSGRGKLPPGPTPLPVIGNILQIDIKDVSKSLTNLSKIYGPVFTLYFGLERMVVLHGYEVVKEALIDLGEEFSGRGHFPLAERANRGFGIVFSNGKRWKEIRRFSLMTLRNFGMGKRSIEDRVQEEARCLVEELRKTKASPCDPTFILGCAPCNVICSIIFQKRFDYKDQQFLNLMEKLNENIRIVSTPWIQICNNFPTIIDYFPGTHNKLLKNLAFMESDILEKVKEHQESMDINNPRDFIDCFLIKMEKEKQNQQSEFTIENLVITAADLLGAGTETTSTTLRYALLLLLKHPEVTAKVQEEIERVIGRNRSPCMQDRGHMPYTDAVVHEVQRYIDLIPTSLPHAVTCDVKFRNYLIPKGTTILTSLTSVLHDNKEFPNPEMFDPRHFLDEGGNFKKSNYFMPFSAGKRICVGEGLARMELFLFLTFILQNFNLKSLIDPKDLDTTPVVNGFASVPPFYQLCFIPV
Sequence of Cytochrome P450 2C9 (P11712 whole entry): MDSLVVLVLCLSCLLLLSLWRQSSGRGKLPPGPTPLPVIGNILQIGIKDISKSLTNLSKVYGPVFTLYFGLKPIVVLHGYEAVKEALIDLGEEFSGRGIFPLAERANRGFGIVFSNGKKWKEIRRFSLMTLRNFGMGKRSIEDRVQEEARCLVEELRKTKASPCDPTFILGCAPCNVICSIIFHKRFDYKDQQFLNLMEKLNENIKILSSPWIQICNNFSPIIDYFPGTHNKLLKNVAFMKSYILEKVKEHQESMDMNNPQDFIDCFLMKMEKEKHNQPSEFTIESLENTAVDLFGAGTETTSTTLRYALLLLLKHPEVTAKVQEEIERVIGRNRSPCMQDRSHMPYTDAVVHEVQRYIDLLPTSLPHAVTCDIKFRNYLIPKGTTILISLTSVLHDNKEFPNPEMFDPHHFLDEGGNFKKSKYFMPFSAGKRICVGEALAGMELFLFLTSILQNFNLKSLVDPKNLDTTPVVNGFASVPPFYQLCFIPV
Sequence of Cytochrome P450 2D6 (P10635 whole entry): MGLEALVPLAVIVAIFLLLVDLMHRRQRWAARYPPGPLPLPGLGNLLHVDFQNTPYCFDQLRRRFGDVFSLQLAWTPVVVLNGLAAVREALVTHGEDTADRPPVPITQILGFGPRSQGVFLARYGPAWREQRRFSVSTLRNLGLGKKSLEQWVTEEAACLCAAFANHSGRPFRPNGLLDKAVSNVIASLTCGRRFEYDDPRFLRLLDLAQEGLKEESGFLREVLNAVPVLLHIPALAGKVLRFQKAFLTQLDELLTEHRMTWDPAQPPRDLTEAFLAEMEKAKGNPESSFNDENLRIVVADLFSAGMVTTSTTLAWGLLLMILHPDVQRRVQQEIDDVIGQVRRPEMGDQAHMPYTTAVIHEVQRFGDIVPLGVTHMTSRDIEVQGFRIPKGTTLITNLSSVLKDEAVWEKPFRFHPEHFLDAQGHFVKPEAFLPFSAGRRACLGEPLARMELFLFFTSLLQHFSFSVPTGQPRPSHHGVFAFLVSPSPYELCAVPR

In the case of `Cc1cc(O)nc(SCn2nnc3ccccc3c2=O)n1`, the IC50 in data set [1] and in data set [2] was > 66 µM (inactive) each time.
Consider `CN(C)/C=N/c1ccc2nn(-c3ccccc3)nc2c1`, for which the AC50 at Cytochrome P450 2C9 is 15.8 µM (inconclusive); at Cytochrome P450 2D6, 25.1 µM (inconclusive).
Consider `Cc1ccc(C(=O)NC(=S)NNS(=O)(=O)c2ccccc2)cc1`, for which the IC50 in [1] and in data set [2] was > 66 µM (inactive) throughout.
As to `O=C(c1cc(C(F)(F)F)cc(C(F)(F)F)c1)N1CCC2(CC1)CN(c1ccccn1)C2`, the AC50 at Cytochrome P450 2D6 was 12.6 µM (inconclusive).
Take `COc1ccc2sc(-c3ccc(S(C)(=O)=O)cc3)c(C(=O)NCCc3c[nH]c4ccccc34)c2c1`: the IC50 in data set [3] is > 47.1 µM (inactive). In addition, the EC50 in data set [4] was > 53 µM (inactive).
Regarding `Cn1cccc1C(=O)N1CCC2(CCCN(c3ccccn3)C2)CC1`, the AC50 at Cytochrome P450 2C9 is 25.1 µM (inconclusive); on Cytochrome P450 3A4 it was 20 µM (inconclusive); on Cytochrome P450 1A2, 20 µM (inconclusive); on Cytochrome P450 2D6, 25.1 µM (inconclusive).
Turning to `COc1ccc(CCN(C)Cc2ccc(OCc3ccccc3)c(OC)c2)cc1OC`, the AC50 at Cytochrome P450 2C9 was 15.8 µM (inconclusive); on Cytochrome P450 1A2, 39.8 µM (inconclusive); at Cytochrome P450 2D6, 14.1 µM (inconclusive).
On to `CN(C1CCCCC1)S(=O)(=O)c1ccc(S)nc1`, for which the IC50 in data set [1] and in data set [2] was > 66 µM (inactive) each time.
Regarding `Oc1ccnc2c(Cl)cccc12`, in [3], the IC50 was > 47.1 µM (inactive). The EC50 in data set [4] is > 53 µM (inactive).
Consider `C=CCN1C(=O)NC(=O)/C(=C(/CC)Nc2ccccc2NC(=O)CC)C1=O`, for which, in data set [3], the IC50 is > 47.1 µM (inactive). Further, in data set [4], the EC50 is > 53 µM (inactive).
For `O=C(NNC(=O)c1cccc(S(=O)(=O)N2CCCCC2)c1)c1ccccc1`, in that order: > 47.1 µM (inactive) and > 53 µM (inactive).
Regarding `Cc1ccc(C(=O)NC(=S)Nc2cccc(-c3nc4ccccc4s3)c2)cc1`, the IC50 in data set [1] and in data set [2] was > 66 µM (inactive) each time.
Regarding `O=[N+]([O-])/C=C\c1cc2ccccc2[nH]1`, the AC50 on Cytochrome P450 2C19 (read-out: AC50) and on Cytochrome P450 2D6 was 5.01 µM (inconclusive) in each case.
As to `CC(N=C(S)Nc1ccccc1C(F)(F)F)C1CC2CCC1C2` (configuration not stated), the IC50 in data set [1] and in data set [2] was > 66 µM (inactive) in each case.
`COC(=O)c1ccc(CSc2nc3ccccc3c(=O)n2-c2cccc(OC)c2)o1`: in data set [3], the IC50 was 4.06 µM (active). The EC50 in [4] is > 53 µM (inactive).
On to `Cc1ccccc1-c1nc(C[S+]([O-])CC(=O)N2CCC3(CC2)OCCO3)c(C)o1` (configuration not stated), for which the AC50 at Cytochrome P450 1A2 and at Cytochrome P450 2D6 was 25.1 µM (inconclusive) each time.
As for `CN(C)c1ncc2nc(CCc3ccccc3)c(=O)n(Cc3ccc(F)cc3)c2n1`, the AC50 is 3.98 µM (inconclusive) at Cytochrome P450 3A4 and 25.1 µM (inconclusive) on Cytochrome P450 2D6.
For `O=C(NC(=S)Nc1cccc(O)c1)c1cncc(Br)c1`, the IC50 in data set [1] and in [2] was > 66 µM (inactive) throughout.
In the case of `Cc1cccc(N2CCN(S(=O)(=O)c3ccc(Cl)nc3)CC2C)c1` (configuration not stated), in [3], the IC50 was > 47.1 µM (inactive). In addition, the EC50 in data set [4] was > 53 µM (inactive).
In the case of `CCN(CC(=O)NCc1ccc(Cl)cc1)C(=O)CNS(=O)(=O)c1ccc(NC(C)=O)cc1`, the IC50 in data set [1] and in data set [2] was > 66 µM (inactive) each time.
For the compound `O=Cc1c(N2CCN(CCO)CC2)nc2ccccn2c1=O`, the IC50 in data set [1] and in data set [2] was > 66 µM (inactive) in each case. Also, in data set [4], the EC50 was > 53 µM (inactive).
For `CC12CCC(C(=O)Nc3ncc([N+](=O)[O-])s3)(OC1=O)C2(C)C` (configuration not stated), in data set [3], the IC50 was > 47.1 µM (inactive). For the same compound, the AC50 on Cytochrome P450 2C9 is 11.2 µM (inconclusive); on Cytochrome P450 2C19, “inconclusive”. Further, the results for the EC50 in [5], in data set [6] and in data set [4] were 0.629 µM (active), > 160 µM (inactive) and > 53 µM (inactive), respectively.
With `O=C(NC(=S)Nc1cccnc1)c1cccs1`, the IC50 in data set [1] and in data set [2] was > 66 µM (inactive) throughout.
As for `COC(=O)CC(NC(=O)c1ccc(C)cc1)c1ccc2c(c1)OCO2` (configuration not stated), in data set [3], the IC50 is > 47.1 µM (inactive). The EC50 in data set [4] is > 53 µM (inactive).
For `CCN(CC)S(=O)(=O)c1cccc(C(=O)Nc2ccc3c(c2)OCO3)c1`, in that order: > 47.1 µM (inactive) and > 53 µM (inactive).
Regarding `COc1ccc(CCC(C)Nc2cccc(F)c2)cc1` (configuration not stated), at Cytochrome P450 2D6, the AC50 was 10 µM (inconclusive).
Consider `CC1(C)CC(=O)C2=C(C1)N(Cc1ccco1)C(=O)C2(O)C(F)(F)F` (configuration not stated), for which the IC50 in data set [3] was > 47.1 µM (inactive). Moreover, in [4], the EC50 was > 53 µM (inactive).
As to `CCN1CCc2c(C#N)c(N3CCOCC3)nc(NCCO)c2C1`, the IC50 in data set [1] and in [2] was > 66 µM (inactive) in each case.
Turning to `COc1ccccc1CNc1cc(-c2ccccc2C)ncn1`, the AC50 was 31.6 µM (inconclusive) on Cytochrome P450 3A4 and 15.8 µM (inconclusive) on Cytochrome P450 2D6.
Regarding `CN(Cc1ccco1)c1ncncc1-c1ccoc1`, the figures for the AC50 on Cytochrome P450 3A4, at Cytochrome P450 2C19 (read-out: AC50) and on Cytochrome P450 2D6 were 3.16 µM (inconclusive), 39.8 µM (inconclusive) and 39.8 µM (inconclusive), respectively.
On to `CCOc1ccc(-n2c(C)nc3cc(C(=O)NCc4ccco4)ccc32)cc1`, for which the AC50 at Cytochrome P450 1A2 was 25.1 µM (inconclusive); on Cytochrome P450 2D6, 11.2 µM (inconclusive).
Consider `COC(=O)c1c(C)oc2ccc(N(C(=O)c3ccncc3)S(=O)(=O)c3ccccc3)cc12`, for which the AC50 at Cytochrome P450 2D6 is 0.0355 µM (inconclusive).
With `Cc1cc(C)n(N=C(S)NC2CCCCC2)c(=O)c1C#N`, the IC50 in [1] and in data set [2] was > 66 µM (inactive) each time.
Regarding `Cc1ccc2nc(N3C(=O)C(O)=C(C(=O)c4ccco4)C3c3cccc(O)c3)sc2c1` (configuration not stated), the IC50 in data set [3] was < 0.368 µM (active). The EC50 in [4] was > 53 µM (inactive).
As for `Nc1nc(NCCc2ccc(O)cc2)nc2nc(-c3ccco3)nn12` [ZM-241385], the AC50 was 39.8 µM (inconclusive) on Cytochrome P450 2C9, 31.6 µM (inconclusive) at Cytochrome P450 1A2 and 10 µM (inconclusive) on Cytochrome P450 2D6.
